Where two headings read alike, the source gives them in different places. Square brackets hold non-standard residues; d marks the D form. Peptide text beside a SMILES is read from it. Aib = CC(C)(N)C(=O)O
Experiments:
human GLP-1 receptor = molecular target: T1, human GLP-1 receptor (Homo sapiens, UniProt P43220); assay: GLP-1 receptor potency assay (cAMP AlphaScreen, HEK293 cells stably expressing GLP-1R); assay type: cell-based; details: cAMP response, HEK293 cells expressing human GLP-1R; read-out: EC50 GLP-1
T1 construct: expressed in transfected cells
T1 sequence (P43220 24-463): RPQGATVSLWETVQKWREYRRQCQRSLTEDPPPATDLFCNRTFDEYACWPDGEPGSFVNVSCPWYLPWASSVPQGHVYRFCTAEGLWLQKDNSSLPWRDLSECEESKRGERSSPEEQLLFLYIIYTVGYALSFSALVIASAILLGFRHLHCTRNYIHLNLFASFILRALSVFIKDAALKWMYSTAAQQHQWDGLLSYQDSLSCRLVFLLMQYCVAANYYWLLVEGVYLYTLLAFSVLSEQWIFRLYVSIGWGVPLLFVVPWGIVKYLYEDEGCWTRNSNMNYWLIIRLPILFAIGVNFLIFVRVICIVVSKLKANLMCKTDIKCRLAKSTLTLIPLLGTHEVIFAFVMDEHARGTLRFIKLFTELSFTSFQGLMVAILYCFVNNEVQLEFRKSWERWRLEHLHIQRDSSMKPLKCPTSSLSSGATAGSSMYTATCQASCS
Method in brief: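 cAMP accumulation was quantified by AlphaScreen in G418-selected HEK293 cells stably transfected with human GLP-1R cDNA. Concentration-response data were normalized between vehicle and positive control. EC50 and maximal response came from 4PL curve fitting.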

human GLP-2 receptor = molecular target: T2, human GLP-2 receptor (Homo sapiens, UniProt O95838, D470N); assay: GLP-2 receptor potency assay (cAMP AlphaScreen, HEK293 cells stably expressing GLP-2R); assay type: cell-based; details: cAMP response, HEK293 cells expressing human GLP-2R
T2 sequence (O95838 1-553 D470N): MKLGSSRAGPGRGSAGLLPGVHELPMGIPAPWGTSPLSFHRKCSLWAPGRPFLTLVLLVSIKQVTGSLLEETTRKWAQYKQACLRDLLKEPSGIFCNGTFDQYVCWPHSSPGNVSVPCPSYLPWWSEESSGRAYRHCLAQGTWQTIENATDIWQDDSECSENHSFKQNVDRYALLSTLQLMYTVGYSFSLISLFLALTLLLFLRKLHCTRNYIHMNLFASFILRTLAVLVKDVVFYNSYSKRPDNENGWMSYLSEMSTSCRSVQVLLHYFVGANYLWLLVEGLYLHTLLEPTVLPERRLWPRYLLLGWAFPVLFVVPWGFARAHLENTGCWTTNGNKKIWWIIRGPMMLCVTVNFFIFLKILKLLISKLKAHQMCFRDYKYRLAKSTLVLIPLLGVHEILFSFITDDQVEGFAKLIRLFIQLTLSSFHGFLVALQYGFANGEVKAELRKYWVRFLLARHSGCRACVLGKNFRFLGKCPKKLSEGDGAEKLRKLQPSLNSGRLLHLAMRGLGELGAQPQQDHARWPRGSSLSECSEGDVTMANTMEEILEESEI
Method in brief: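 EC50 and maximal response were fitted with a 4PL model after normalization to positive control and vehicle. cAMP accumulation was quantified by AlphaScreen in a stable HEK293 clone transfected with human GLP-2 receptor.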

[1] = Solubility assessment by turbidity absorbance at 325 nm; assay type: physicochemical; details: 1 mg/ml peptide
Method: A stock solution of the test peptide (2 mg/ml; determined from the weighed amount of peptide) in demineralized water adjusted to pH 2.5 with HCl was prepared, and aliquots were diluted 1:1 in 100 mM acetate buffer (pH 4.0 and pH 5.0), 100 mM histidine buffer (pH 6.0 and pH 7.0) and 100 mM phosphate buffer (pH 6.0, pH 7.0 and pH7.5), respectively, and loaded in a standard flat-bottom, non-sterile 96-well UV Microplate. The absorbance of samples (single samples, n=1) at 280 and 325 nm was measured in an absorbance-based plate reader, which was preheated to ambient temperature (typically 25° C.).

[2] = 100 mM acetate buffer pH 4.0, ambient temperature, read-out: Solubility, Acetate buffer pH 4
[3] = 100 mM acetate buffer pH 5.0, ambient temperature, read-out: Solubility, Acetate buffer pH 5
[4] = 100 mM histidine buffer pH 6.0, ambient temperature, read-out: Solubility, Histidine buffer pH 6
[5] = 100 mM histidine buffer pH 7.0, ambient temperature, read-out: Solubility, Histidine buffer pH 7
[6] = 100 mM phosphate buffer pH 6.0, ambient temperature, read-out: Solubility, Phosphate buffer pH 6
[7] = 100 mM phosphate buffer pH 7.0, ambient temperature, read-out: Solubility, Phosphate buffer pH 7
[8] = 100 mM phosphate buffer pH 7.5, ambient temperature, read-out: Solubility, Phosphate buffer pH 7.5

Row | SMILES | EC50 (human GLP-1 receptor) | EC50 (human GLP-2 receptor) | solubility [1, 2] | solubility [1, 3] | solubility [1, 4] | solubility [1, 5] | solubility [1, 6] | solubility [1, 7] | solubility [1, 8]
1 | CC[C@H](C)[C@H](NC(=O)[C@H](Cc1ccccc1)NC(=O)[C@H](CC(=O)O)NC(=O)[C@H](CCCNC(=N)N)NC(=O)[C@H](C)NC(=O)[C@H](C)NC(=O)[C@H](CCC(N)=O)NC(=O)[C@H](CCC(=O)O)NC(=O)[C@H](CC(=O)O)NC(=O)[C@H](CC(C)C)NC(=O)[C@@H](NC(=O)[C@@H](NC(=O)[C@H](C)NC(=O)[C@H](CC(C)C)NC(=O)[C@H](CCC(=O)O)NC(=O)[C@H](CO)NC(=O)[C@@H](NC(=O)[C@H](Cc1ccccc1)NC(=O)[C@H](CO)NC(=O)CNC(=O)[C@H](CCC(=O)O)NC(=O)C(C)(C)NC(=O)[C@@H](N)Cc1c[nH]cn1)[C@@H](C)O)[C@@H](C)O)[C@@H](C)CC)C(=O)N[C@@H](C)C(=O)N[C@@H](Cc1c[nH]c2ccccc12)C(=O)N[C@@H](CC(C)C)C(=O)N[C@H](C(=O)N[C@@H](CCC(=O)O)C(=O)N[C@@H](Cc1c[nH]cn1)C(=O)N[C@@H](CCCCN)C(=O)N[C@H](C(=O)N[C@H](C(=O)N[C@@H](CC(=O)O)C(=O)O)[C@@H](C)O)[C@@H](C)CC)[C@@H](C)CC [Compound 4] (H-H[Aib]EGSFTSELATILDEQAARDFIAWLIEHKITD-OH) | 0.015 nM | 0.044 nM | ≥ 1000 µg/mL | < 1000 µg/mL | ≥ 1000 µg/mL | ≥ 1000 µg/mL | ≥ 1000 µg/mL | ≥ 1000 µg/mL | ≥ 1000 µg/mL
2 | CC[C@H](C)[C@H](NC(=O)[C@H](Cc1ccccc1)NC(=O)[C@H](CC(=O)O)NC(=O)[C@H](CCCNC(=N)N)NC(=O)[C@H](C)NC(=O)[C@H](C)NC(=O)[C@H](CCC(N)=O)NC(=O)[C@H](CCC(=O)O)NC(=O)[C@H](CC(=O)O)NC(=O)[C@H](CC(C)C)NC(=O)[C@@H](NC(=O)[C@@H](NC(=O)[C@H](C)NC(=O)[C@H](CC(C)C)NC(=O)[C@H](CCC(=O)O)NC(=O)[C@H](CO)NC(=O)[C@@H](NC(=O)[C@H](Cc1ccccc1)NC(=O)[C@H](CO)NC(=O)CNC(=O)[C@H](CCC(=O)O)NC(=O)C(C)(C)NC(=O)[C@@H](N)Cc1c[nH]cn1)[C@@H](C)O)[C@@H](C)O)[C@@H](C)CC)C(=O)N[C@@H](C)C(=O)N[C@@H](Cc1c[nH]c2ccccc12)C(=O)N[C@@H](CC(C)C)C(=O)N[C@H](C(=O)N[C@@H](Cc1ccc(O)cc1)C(=O)N[C@@H](Cc1c[nH]cn1)C(=O)N[C@@H](CCCCN)C(=O)N[C@H](C(=O)N[C@H](C(=O)N[C@@H](CC(=O)O)C(=O)O)[C@@H](C)O)[C@@H](C)CC)[C@@H](C)CC [Compound 7] (H-H[Aib]EGSFTSELATILDEQAARDFIAWLIYHKITD-OH) | 0.017 nM | 0.11 nM | ≥ 1000 µg/mL | < 1000 µg/mL | < 1000 µg/mL | ≥ 1000 µg/mL | < 1000 µg/mL | ≥ 1000 µg/mL | ≥ 1000 µg/mL
3 | CC[C@H](C)[C@H](NC(=O)[C@H](Cc1ccccc1)NC(=O)[C@H](CC(=O)O)NC(=O)[C@H](CCCNC(=N)N)NC(=O)[C@H](C)NC(=O)[C@H](C)NC(=O)[C@H](CCC(N)=O)NC(=O)[C@H](CCC(=O)O)NC(=O)[C@H](CC(=O)O)NC(=O)[C@H](CC(C)C)NC(=O)[C@@H](NC(=O)[C@@H](NC(=O)[C@H](C)NC(=O)[C@H](CC(C)C)NC(=O)[C@H](CCC(=O)O)NC(=O)[C@H](CO)NC(=O)[C@@H](NC(=O)[C@H](Cc1ccccc1)NC(=O)[C@H](CO)NC(=O)CNC(=O)[C@H](CCC(=O)O)NC(=O)C(C)(C)NC(=O)[C@@H](N)Cc1c[nH]cn1)[C@@H](C)O)[C@@H](C)O)[C@@H](C)CC)C(=O)N[C@@H](C)C(=O)N[C@@H](Cc1c[nH]c2ccccc12)C(=O)N[C@@H](CC(C)C)C(=O)N[C@H](C(=O)N[C@@H](CC(C)C)C(=O)N[C@@H](Cc1c[nH]cn1)C(=O)N[C@@H](CCCCN)C(=O)N[C@H](C(=O)N[C@H](C(=O)N[C@@H](CC(=O)O)C(=O)O)[C@@H](C)O)[C@@H](C)CC)[C@@H](C)CC [Compound 8] (H-H[Aib]EGSFTSELATILDEQAARDFIAWLILHKITD-OH) | 0.021 nM | 0.084 nM | ≥ 1000 µg/mL | < 1000 µg/mL | < 1000 µg/mL | ≥ 1000 µg/mL | < 1000 µg/mL | ≥ 1000 µg/mL | ≥ 1000 µg/mL

The remaining compounds from weak to strong by EC50 (human GLP-1 receptor), led by results:

Row | EC50 (human GLP-1 receptor) | EC50 (human GLP-2 receptor) | solubility [1, 2] | solubility [1, 3] | solubility [1, 4] | solubility [1, 5] | solubility [1, 6] | solubility [1, 7] | solubility [1, 8] | SMILES
4 | 0.014 nM | 0.047 nM | ≥ 1000 µg/mL | < 1000 µg/mL | < 1000 µg/mL | ≥ 1000 µg/mL | < 1000 µg/mL | ≥ 1000 µg/mL | < 1000 µg/mL | CC[C@H](C)[C@H](NC(=O)[C@H](Cc1ccccc1)NC(=O)[C@H](CC(=O)O)NC(=O)[C@H](CCCNC(=N)N)NC(=O)[C@H](C)NC(=O)[C@H](C)NC(=O)[C@H](CCC(N)=O)NC(=O)[C@H](CCC(=O)O)NC(=O)[C@H](CC(=O)O)NC(=O)[C@H](CC(C)C)NC(=O)[C@@H](NC(=O)[C@@H](NC(=O)[C@H](C)NC(=O)[C@H](CC(C)C)NC(=O)[C@H](CCC(=O)O)NC(=O)[C@H](CO)NC(=O)[C@@H](NC(=O)[C@H](Cc1ccccc1)NC(=O)[C@H](CO)NC(=O)CNC(=O)[C@H](CCC(=O)O)NC(=O)C(C)(C)NC(=O)[C@@H](N)Cc1c[nH]cn1)[C@@H](C)O)[C@@H](C)O)[C@@H](C)CC)C(=O)N[C@@H](C)C(=O)N[C@@H](Cc1c[nH]c2ccccc12)C(=O)N[C@@H](CC(C)C)C(=O)N[C@H](C(=O)N[C@@H](Cc1c[nH]cn1)C(=O)N[C@@H](Cc1c[nH]cn1)C(=O)N[C@@H](CCCCN)C(=O)N[C@H](C(=O)N[C@H](C(=O)N[C@@H](CC(=O)O)C(=O)O)[C@@H](C)O)[C@@H](C)CC)[C@@H](C)CC [Compound 6] (H-H[Aib]EGSFTSELATILDEQAARDFIAWLIHHKITD-OH)
5 | 0.0074 nM | 0.036 nM | ≥ 1000 µg/mL | < 1000 µg/mL | ≥ 1000 µg/mL | ≥ 1000 µg/mL | ≥ 1000 µg/mL | ≥ 1000 µg/mL | ≥ 1000 µg/mL | CC[C@H](C)[C@H](NC(=O)[C@H](CC(C)C)NC(=O)[C@H](Cc1c[nH]c2ccccc12)NC(=O)[C@H](C)NC(=O)[C@@H](NC(=O)[C@H](Cc1ccccc1)NC(=O)[C@H](CC(=O)O)NC(=O)[C@H](CCCNC(=N)N)NC(=O)[C@H](C)NC(=O)[C@H](C)NC(=O)[C@H](CCC(N)=O)NC(=O)[C@H](CCC(=O)O)NC(=O)[C@H](CC(=O)O)NC(=O)[C@H](CC(C)C)NC(=O)[C@@H](NC(=O)[C@@H](NC(=O)[C@H](C)NC(=O)[C@H](CC(C)C)NC(=O)[C@H](CCC(=O)O)NC(=O)[C@H](CO)NC(=O)[C@@H](NC(=O)[C@H](Cc1ccccc1)NC(=O)[C@@H](NC(=O)CNC(=O)[C@H](CCC(=O)O)NC(=O)C(C)(C)NC(=O)[C@@H](N)Cc1c[nH]cn1)[C@@H](C)O)[C@@H](C)O)[C@@H](C)O)[C@@H](C)CC)[C@@H](C)CC)C(=O)N[C@@H](C)C(=O)N[C@@H](Cc1c[nH]cn1)C(=O)N[C@@H](CCCCN)C(=O)N[C@H](C(=O)N[C@H](C(=O)N[C@@H](CC(=O)O)C(=O)O)[C@@H](C)O)[C@@H](C)CC [Compound 3] (H-H[Aib]EGTFTSELATILDEQAARDFIAWLIAHKITD-OH)

— patent US11130793B2, “GLP-1/GLP-2 dual agonists” (Zealand Pharma A/S, priority 2016, dated 2021)
